# Laboratory results published in US8192962B2, “Processes for detecting toxic substances” (Daikin Industries, Ltd., priority 2001, dated 2012).
# Test system: Stress protein genes
# Experiment: DNA chip mRNA expression in yeast, stress protein genes (Table 6)
# Format: cell-based, Saccharomyces cerevisiae S288C
# Experimental: Yeast (Saccharomyces cerevisiae S288C (α SUC2mal mel gap2 CUP1)) were incubated at 25° C. on YPD medium (yeast extract 1%, polypepton 2%, glucose 2%). One of toxic chemical substances was added to the cells at logarithmic growth phase, and the cells were further incubated for two hours. Cells were cultured without any chemical substance in the same condition, and were used as control. Concentrations of the chemical substances were defined to inhibit the growth of the yeast but not lead to death.
# After completion of the incubation, the culture was centrifuged to collect the cells. To the cells, sodium acetate buffer (50 mM sodium acetate, 10 mM EDTA, 1% SDS) was added, and the mixture was shaken at 65° C. for five minutes, followed by returning to room temperature, and obtaining the supernatant, of which the procedures were repeated two times. To the supernatant, ½ amount of a solution of phenol/chloroform was added, and the mixture was centrifuged to give a supernatant, which was added with an equal amount of chloroform, and the mixture was centrifuged to give a supernatant. To the supernatant, an equal amount of isopropanol containing 0.3 M sodium acetate was added, and the mixture was allowed to stand at room temperature for 30 minutes, after which the mixture was centrifuged to give a sediment of the whole RNAs. Seventy % ethanol was added to the sediment, and the mixture was again centrifuged to give a sediment, which was then dried and dissolved in water. mRNA was isolated from the whole RNAs as followings. In view of the fact that a poly A chain is attached to the 3′ terminus of mRNA, a polynucleotide having a poly T structure which was immobilized on the surface of latex beads was used to trap the mRNA, and then the mRNA was washed and eluted with spine column (Oligotex-dT30<Super>mRNA Purification Kit, Takara). Reverse transcription of the mRNA was conducted with a reverse transcriptase (Super Script II Reverse Transcriptase; catalogue No. 18064-014, GibcoBRL) using fluorescence-labeled nucleotides to give cDNAs that were introduced with Cy3-dUTP or Cy5-dUTP during the reverse transcription.
# The labeled cDNAs were dissolved in TE buffer (10mM Tris-HCl/1 mM EDTA, pH8.0), and the solution was dropped on the DNA chip containing the whole genes of yeast (DNA Chip Research Inc. Japan) so that the cDNAs were hybridized on the DNA chip at 65° C. for over 12 hours. The fluoresces intensity of the DNA chip was read with a scanner, and the ratio relative to the fluorescence intensity resulting from the absence of chemical substance was estimated as the following, which is shown in Tables 1 to 9: […]
smiles,measurement,setting,value
"C=CC=O [(14), acrolein]",The level of expressed mRNA in the presence of chemical substance/The level of expressed mRNA in the absence of chemical substance,yeast gene YIL033C,0.7
same,The level of expressed mRNA in the presence of chemical substance/The level of expressed mRNA in the absence of chemical substance,yeast gene YIR037W,2.3
same,The level of expressed mRNA in the presence of chemical substance/The level of expressed mRNA in the absence of chemical substance,yeast gene YIR038C,2.5
same,The level of expressed mRNA in the presence of chemical substance/The level of expressed mRNA in the absence of chemical substance,yeast gene YJL128C,0.8
same,The level of expressed mRNA in the presence of chemical substance/The level of expressed mRNA in the absence of chemical substance,yeast gene YJL158C,0.5
same,The level of expressed mRNA in the presence of chemical substance/The level of expressed mRNA in the absence of chemical substance,yeast gene YJL159W,0.6
same,The level of expressed mRNA in the presence of chemical substance/The level of expressed mRNA in the absence of chemical substance,yeast gene YJL165C,0.9
same,The level of expressed mRNA in the presence of chemical substance/The level of expressed mRNA in the absence of chemical substance,yeast gene YJR045C,0.5
same,The level of expressed mRNA in the presence of chemical substance/The level of expressed mRNA in the absence of chemical substance,yeast gene YJR090C,1.0
same,The level of expressed mRNA in the presence of chemical substance/The level of expressed mRNA in the absence of chemical substance,yeast gene YKL161C,1.4
same,The level of expressed mRNA in the presence of chemical substance/The level of expressed mRNA in the absence of chemical substance,yeast gene YKL163W,0.5
same,The level of expressed mRNA in the presence of chemical substance/The level of expressed mRNA in the absence of chemical substance,yeast gene YKL164C,0.3
same,The level of expressed mRNA in the presence of chemical substance/The level of expressed mRNA in the absence of chemical substance,yeast gene YKL210W,0.8
same,The level of expressed mRNA in the presence of chemical substance/The level of expressed mRNA in the absence of chemical substance,yeast gene YKR053C,1.3
same,The level of expressed mRNA in the presence of chemical substance/The level of expressed mRNA in the absence of chemical substance,yeast gene YLL024C,0.4
same,The level of expressed mRNA in the presence of chemical substance/The level of expressed mRNA in the absence of chemical substance,yeast gene YLL026W,0.8
same,The level of expressed mRNA in the presence of chemical substance/The level of expressed mRNA in the absence of chemical substance,yeast gene YLL039C,1.4
same,The level of expressed mRNA in the presence of chemical substance/The level of expressed mRNA in the absence of chemical substance,yeast gene YLL060C,10.6
same,The level of expressed mRNA in the presence of chemical substance/The level of expressed mRNA in the absence of chemical substance,yeast gene YLR006C,1.0
same,The level of expressed mRNA in the presence of chemical substance/The level of expressed mRNA in the absence of chemical substance,yeast gene YLR109W,2.3
same,The level of expressed mRNA in the presence of chemical substance/The level of expressed mRNA in the absence of chemical substance,yeast gene YLR259C,0.8
same,The level of expressed mRNA in the presence of chemical substance/The level of expressed mRNA in the absence of chemical substance,yeast gene YML007W,1.2
same,The level of expressed mRNA in the presence of chemical substance/The level of expressed mRNA in the absence of chemical substance,yeast gene YML070W,1.3
same,The level of expressed mRNA in the presence of chemical substance/The level of expressed mRNA in the absence of chemical substance,yeast gene YMR021C,1.3
same,The level of expressed mRNA in the presence of chemical substance/The level of expressed mRNA in the absence of chemical substance,yeast gene YMR173W,2.3
same,The level of expressed mRNA in the presence of chemical substance/The level of expressed mRNA in the absence of chemical substance,yeast gene YMR186W,0.6
same,The level of expressed mRNA in the presence of chemical substance/The level of expressed mRNA in the absence of chemical substance,yeast gene YNL064C,0.8
same,The level of expressed mRNA in the presence of chemical substance/The level of expressed mRNA in the absence of chemical substance,yeast gene YNL160W,1.3
same,The level of expressed mRNA in the presence of chemical substance/The level of expressed mRNA in the absence of chemical substance,yeast gene YNL241C,1.1
same,The level of expressed mRNA in the presence of chemical substance/The level of expressed mRNA in the absence of chemical substance,yeast gene YNR076W,0.8
same,The level of expressed mRNA in the presence of chemical substance/The level of expressed mRNA in the absence of chemical substance,yeast gene YOL064C,0.9
same,The level of expressed mRNA in the presence of chemical substance/The level of expressed mRNA in the absence of chemical substance,yeast gene YOL161C,0.9
same,The level of expressed mRNA in the presence of chemical substance/The level of expressed mRNA in the absence of chemical substance,yeast gene YOR008C,0.9
same,The level of expressed mRNA in the presence of chemical substance/The level of expressed mRNA in the absence of chemical substance,yeast gene YOR009W,0.7
same,The level of expressed mRNA in the presence of chemical substance/The level of expressed mRNA in the absence of chemical substance,yeast gene YOR010C,0.4
same,The level of expressed mRNA in the presence of chemical substance/The level of expressed mRNA in the absence of chemical substance,yeast gene YOR027W,0.8
same,The level of expressed mRNA in the presence of chemical substance/The level of expressed mRNA in the absence of chemical substance,yeast gene YOR208W,1.3
same,The level of expressed mRNA in the presence of chemical substance/The level of expressed mRNA in the absence of chemical substance,yeast gene YPL059W,1.3
same,The level of expressed mRNA in the presence of chemical substance/The level of expressed mRNA in the absence of chemical substance,yeast gene YPL106C,0.9
same,The level of expressed mRNA in the presence of chemical substance/The level of expressed mRNA in the absence of chemical substance,yeast gene YPL140C,1.1
same,The level of expressed mRNA in the presence of chemical substance/The level of expressed mRNA in the absence of chemical substance,yeast gene YPL194W,1.1
same,The level of expressed mRNA in the presence of chemical substance/The level of expressed mRNA in the absence of chemical substance,yeast gene YPL223C,2.5
same,The level of expressed mRNA in the presence of chemical substance/The level of expressed mRNA in the absence of chemical substance,yeast gene YPL240C,0.7
same,The level of expressed mRNA in the presence of chemical substance/The level of expressed mRNA in the absence of chemical substance,yeast gene YPR005C,1.3
same,The level of expressed mRNA in the presence of chemical substance/The level of expressed mRNA in the absence of chemical substance,yeast gene YPR026W,1.5
